Data published in PubChem BioAssay AID608 (Sanford-Burnham Center for Chemical Genomics, 2007).
Active and inactive are the calls of the source. No rule for the calls is given here.

Molecular target: Peptidyl-prolyl cis-trans isomerase FKBP1A (Homo sapiens) (UniProt P62942)
Experiment: small-molecule binding to FKBP12 – biophysical, NMR detection (AID 608)
Conditions: purified FKBP12

Sequence of Peptidyl-prolyl cis-trans isomerase FKBP1A (Homo sapiens) (P62942 whole entry, looked up): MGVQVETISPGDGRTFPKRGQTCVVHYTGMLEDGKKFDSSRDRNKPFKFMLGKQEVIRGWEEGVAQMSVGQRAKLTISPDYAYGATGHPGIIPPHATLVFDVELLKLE

In the case of `Cc1ccccc1NC(=O)c1ocnc1C`, the Kd was > 4 mM (inactive).
For `CCN1CCC(NC2CCC(O)CC2)CC1` (stereo not given), the Kd was > 4 mM (inactive).
In the case of `O=C(CSc1nc2ccccc2[nH]1)N1CCCCC1`, the Kd was > 4 mM (inactive).
`Oc1ccc(-n2cncn2)cc1` was tested, and the Kd was > 4 mM (inactive).
`CC(C)(O)P(C)(=O)c1ccccc1` (stereo not given) was tested, and the Kd was > 4 mM (inactive).
In the case of `O=C1CCCC2C3CC(CN12)[C@@H]1CCCCN1C3` (stereo not given in full), the Kd was > 4 mM (inactive).
`CP(C)(=O)CCC(=O)O` was tested, and the Kd was > 4 mM (inactive).
`O=c1ccn(Cc2ccccc2)c(=O)[nH]1` was tested, and the Kd was > 4 mM (inactive).
`NC(=O)c1ccc(C(N)=O)cc1` was tested, and the Kd was > 4 mM (inactive).
In the case of `S=C(NCc1ccco1)NN1CCOCC1`, the Kd was > 4 mM (inactive).
`C[C@H]1O[C@@H](O[C@H]2[C@@H](O)C[C@H](O[C@H]3[C@@H](O)C[C@H](O[C@H]4CC[C@]5(C)C6C[C@@H](O)[C@]7(C)[C@@H](C8=CC(=O)OC8)CC[C@]7(O)C6CC[C@@H]5C4)O[C@@H]3C)O[C@@H]2C)C[C@H](O)[C@@H]1O` (stereo not given in full) was tested, and the Kd was > 4 mM (inactive).
`COc1ccc(C[C@H]2NC[C@H](O)[C@H]2OC(C)=O)cc1` was tested, and the Kd was > 4 mM (inactive).
For `CN1CCC(N2CCCC(C(N)=O)C2)CC1` (stereo not given), the Kd was > 4 mM (inactive).
In the case of `C/C1=C/CC(C)(C)/C=C/C/C(C)=C/CC1`, the Kd was > 4 mM (inactive).
For `Cc1ccc2c(c1)=C(c1sc(N)nc1O)C(=O)N=2`, the Kd was > 4 mM (inactive).
`O[C@H]1C=C2CCN3Cc4cc5c(cc4C(C23)[C@@H]1O)OCO5` (stereo not given in full) was tested, and the Kd was > 4 mM (inactive).
In the case of `S=C(CN1CCCC1=S)N1CCOCC1`, the Kd was > 4 mM (inactive).
With `Cc1nc2ccc(C(=O)O)cc2[nH]1` the Kd was > 4 mM (inactive).
For `O=C(Cc1ccc(F)cc1)Nc1ncccn1`, the Kd was > 4 mM (inactive).
`COc1ccc(NC(=O)C(N)=O)cc1Cl` was tested, and the Kd was > 4 mM (inactive).
For `CS(=O)(=O)N1CCN(C(=O)Cc2cccs2)CC1`, the Kd was > 4 mM (inactive).
`COc1cc2c(cc1OC)[C@@H]1C(=O)c3ccc(O)c(CC=C(C)C)c3O[C@@H]1CO2` was tested, and the Kd was > 4 mM (inactive).
For `OCC1COc2ccccc2O1` (stereo not given), the Kd was > 4 mM (inactive).
For `COC(CC(=O)O)c1nc2ccccc2s1` (stereo not given), the Kd was > 4 mM (inactive).
For `Cc1cccc(N2C(=O)CCC2=O)n1`, the Kd was > 4 mM (inactive).
In the case of `OC[C@H]1O[C@@H](Oc2ccc(O)cc2)[C@H](O)[C@@H](O)[C@@H]1O`, the Kd was > 4 mM (inactive).
`O=C(O)C1NCCc2ccccc21` (stereo not given) was tested, and the Kd was > 4 mM (inactive).
In the case of `NCc1oc(-c2ccccc2)cc1C(=O)O`, the Kd was > 4 mM (inactive).
With `O=C1CNc2cc(C(=O)O)ccc2N1` the Kd was > 4 mM (inactive).
`COc1ccccc1Nc1nncc(=O)[nH]1` was tested, and the Kd was > 4 mM (inactive).
`COc1cc(/C=C/C(=O)O)ccc1O` was tested, and the Kd was > 4 mM (inactive).
`COC1C(O)C(O[C@H]2CC[C@]3(C=O)C4C(CC[C@]3(O)C2)[C@@]2(O)CC[C@H](C3=CC(=O)OC3)[C@@]2(C)C[C@H]4OC(C)=O)OC(C)C1OC(C)=O` (stereo not given in full) was tested, and the Kd was > 4 mM (inactive).
With `CC(=O)Nc1ccc2c(c1)CCCC2=O` the Kd was > 4 mM (inactive).
`CC(C)=CC(=O)Nc1ccccc1Br` was tested, and the Kd was > 4 mM (inactive).
With `CCOc1nc(C)ccc1-c1noc(-c2ccncc2)n1` the Kd was > 4 mM (inactive).
In the case of `CC(=O)Nc1cccc(-c2nnc(-c3ccccc3)o2)c1`, the Kd was > 4 mM (inactive).
`CS(=O)(=O)N1CCC(C(=O)NC2CCCC2)CC1` was tested, and the Kd was > 4 mM (inactive).
For `COc1ccc2c3c([nH]c2c1)C(C)=NCC3`, the Kd was > 4 mM (inactive).
With `O=C(c1ccc(F)cc1)N1CCOCC1` the Kd was > 4 mM (inactive).
In the case of `CCOC(=O)c1ccc(F)cc1F`, the Kd was > 4 mM (inactive).
With `CC(=O)O[C@@H]1CC2C(C)(C)[C@H](O)CC[C@]2(C)C2CC[C@@]3(C)[C@H](c4ccoc4)OC(=O)C4OC43[C@@]21C` (stereo not given in full) the Kd was > 4 mM (inactive).
With `OCc1ccc(-n2cncn2)cc1` the Kd was > 4 mM (inactive).
`O=C(NCc1cccs1)c1nc2ncccn2n1` was tested, and the Kd was > 4 mM (inactive).
For `C=C(C)C1(O)OC(=O)C=C1OC` (stereo not given), the Kd was > 4 mM (inactive).
For `Nc1nc2[nH]c(=O)c(=O)[nH]c2c(=O)[nH]1`, the Kd was > 4 mM (inactive).
